From patent publication US5981558A, “DC107 derivatives” (Kyowa Hakko Kogyo Co., Ltd., priority 1996, dated 1999) come the findings set out here.

Structures are written as SMILES. pIC50: −log10 of the molar value.

The first experiment has as its system HeLa S3 cells. The experiment is described as follows: HeLa S3 Cell Growth Inhibition Test. It counts as cell-based. Conditions: HeLa S3; 72 hours incubation; Neutral Red; read-out: IC50, HeLa S3 cell growth inhibition. Here is the method:
In each well of a 96-well microtiter plate was placed 0.1 mL of HeLa S3 cells having a concentration of 8×10^3 cells/mL and prepared in an MEM culture medium containing 10% fetal bovine serum and 2 mM glutamine. After the cells were incubated overnight at 37° C. in a carbon dioxide incubator, a test compound suitably diluted with a medium was added to the wells in an amount of 0.05 mL for each well. The cells were incubated at 37° C. for 72 hours in a carbon dioxide incubator. After the culture supernatant was removed, 0.1 mL of a culture medium containing 0.02% Neutral Red was added to each well. The cells were then incubated at 37° C. for 1 hour in a carbon dioxide incubator to dye the cells. After the culture supernatant was removed, each residue was rinsed once with physiological saline and the pigment was extracted with 0.001 N hydrochloric acid/30% ethanol. The absorbance at 550 nm of each extract was measured with a microplate reader. The drug concentration required for the 50% inhibition of cell growth, which is referred to as IC50, was calculated by comparing the absorbance for untreated cells with those for cells treated with the drug in known concentrations.
For `COC(=O)[C@H](CCC(=O)OCSC(=O)C(C)(O)C12CC/C(C)=C/C(OC3CCCCO3)C(=O)/C=C/C=C\c3csc(n3)C(C)N(C(=O)C1)[S+]2[O-])NC(=O)[C@@]12O[C@@H](CO)[C@@H](O)[C@@H]1OC(C)(C)O2` (single isomer, unassigned) [Compound 66], the pIC50 is 7.32.

The experiment is the same for the next values; noted with them: Homo sapiens, HeLa S3, 72 h, HeLa S3; 72 hours incubation; Neutral Red; read-out: IC50, HeLa S3 cell growth inhibition.
As to `CC(=O)OCc1oc(=O)oc1CSC(=O)C(C)(O)C12CC/C(C)=C/C(O)C(=O)/C=C/C=C\c3csc(n3)C(C)N(C(=O)C1)[S+]2[O-]` (centres unmarked) [Compound 90], the pIC50 was 6.89.
Still for that read-out and setting: under `COC(=O)[C@H](CCC(=O)OCSC(=O)C(C)(O)C12CCC(C)=CC(O)C(=O)C=CC=Cc3csc(n3)C(C)N(C(=O)C1)[S+]2[O-])NC(=O)c1ccc(OC(C)=O)cc1` (some centres unmarked) [Compound 26] stands 7.17; under `CC(=O)NCC(=O)OCc1oc(=O)oc1CSC(=O)C(C)(O)C12CC/C(C)=C/C(O)C(=O)/C=C/C=C\c3csc(n3)C(C)N(C(=O)C1)[S+]2[O-]` (centres unmarked) [Compound 97], 6.92; under `COCCOCCOCCOCC(=O)OCc1oc(=O)oc1CSC(=O)C(C)(O)C12CC/C(C)=C/C(OC3CCCCO3)C(=O)/C=C/C=C\c3csc(n3)C(C)N(C(=O)C1)[S+]2[O-]` (centres unmarked) [Compound 104], 7.70.
For `CC1=C(CSC(=O)C(C)(O)C23CC/C(C)=C/C(O)C(=O)/C=C/C=C\c4csc(n4)C(C)N(C(=O)C2)[S+]3[O-])C(=O)OC(C)(C)O1` (centres unmarked) [Compound 121], the pIC50 is 5.82.
In the case of `C=C(CSC(=O)C(C)(O)C12CC/C(C)=C/C(O)C(=O)/C=C/C=C\c3csc(n3)C(C)N(C(=O)C1)[S+]2[O-])C(=O)O` (centres unmarked) [Compound 115], the pIC50 is less than 5.00.
Still for that read-out and setting: for `COC(=O)Nc1cccc(C(=O)OCSC(=O)C(C)(O)C23CCC(C)=CC(O)C(=O)C=CC=Cc4csc(n4)C(C)N(C(=O)C2)[S+]3[O-])c1` (centres unmarked) [Compound 34] the value was 7.26; for `COC1(OC2/C=C(\C)CCC3(C(C)(O)C(=O)SCOC(=O)CNC(=O)OC(C)(C)C)CC(=O)N(C(C)c4nc(cs4)/C=C\C=C\C2=O)[S+]3[O-])CCOCC1` (centres unmarked) [Compound 39], 8.66; for `CC(=O)Oc1ccc(C(=O)OCSC(=O)C(C)(O)C23CCC(C)=CC(O)C(=O)C=CC=Cc4csc(n4)C(C)N(C(=O)C2)[S+]3[O-])cc1` (centres unmarked) [Compound 30], 7.82.
On the same count and under the same terms, for `COC(=O)OCc1oc(=O)oc1CSC(=O)C(C)(O)C12CC/C(C)=C/C(OC3CCCCO3)C(=O)/C=C/C=C\c3csc(n3)C(C)N(C(=O)C1)[S+]2[O-]` (centres unmarked) [Compound 106] the value was 7.96; for `CC1=CC(O)C(=O)C=CC=Cc2csc(n2)C(C)N2C(=O)CC(C(C)(O)C(=O)SCOC(=O)CCNC(=O)[C@@]34O[C@H]5COC(C)(C)O[C@H]5[C@@H]3OC(C)(C)O4)(CC1)[S+]2[O-]` (some centres unmarked) [Compound 20], 6.96.
Same read-out and setting: under `CC(=O)Oc1ccc(CCC(=O)OCSC(=O)C(C)(O)C23CCC(C)=CC(O)C(=O)C=CC=Cc4csc(n4)C(C)N(C(=O)C2)[S+]3[O-])cc1` (centres unmarked) [Compound 32] stands 8.89; under `COC1(OC2/C=C(\C)CCC3(C(C)(O)C(=O)SCOC(=O)c4cccc(OC(C)=O)c4)CC(=O)N(C(C)c4nc(cs4)/C=C\C=C\C2=O)[S+]3[O-])CCOCC1` (centres unmarked) [Compound 55], 7.96.
For the molecule `COC(=O)CCC(=O)OCSC(=O)C(C)(O)C12CCC(C)=CC(O)C(=O)C=CC=Cc3csc(n3)C(C)N(C(=O)C1)[S+]2[O-]` (centres unmarked) [Compound 1], the pIC50 is 8.15.

Staying with this experiment, now noted: Homo sapiens, HeLa S3, 72 h, read-out: IC50, HeLa S3 cell growth inhibition, HeLa S3; 72 hours incubation; Neutral Red.
As to `C=C(CSC(=O)C(C)(O)C12CC/C(C)=C/C(O)C(=O)/C=C/C=C\c3csc(n3)C(C)N(C(=O)C1)[S+]2[O-])C(=O)N1CCCCC1` (centres unmarked) [Compound 117], the pIC50 is 5.68.
Turning to `CC(=O)Oc1ccc(CCCC(=O)OCSC(=O)C(C)(O)C23CC/C(C)=C/C(OC4CCCCO4)C(=O)/C=C/C=C\c4csc(n4)C(C)N(C(=O)C2)[S+]3[O-])cc1` (centres unmarked) [Compound 56], the pIC50 was 9.28.
Take `C/C1=C\C(OC2CCCCO2)C(=O)/C=C/C=C\c2csc(n2)C(C)N2C(=O)CC(C(C)(O)C(=O)SCOC(=O)CNC(=O)OC(C)(C)C)(CC1)[S+]2[O-]` (centres unmarked) [Compound 38]: the pIC50 was 8.42.
Same read-out and setting: for `CC1=CC(O)C(=O)C=CC=Cc2csc(n2)C(C)N2C(=O)CC(C(C)(O)C(=O)SCOC(=O)C(C)(C)NC(=O)OC(C)(C)C)(CC1)[S+]2[O-]` (centres unmarked) [Compound 5] the value was 7.26; for `CCCCNC(=O)OCc1oc(=O)oc1CSC(=O)C(C)(O)C12CC/C(C)=C/C(OC3CCCCO3)C(=O)/C=C/C=C\c3csc(n3)C(C)N(C(=O)C1)[S+]2[O-]` (centres unmarked) [Compound 108], 7.89.
With `C/C1=C\C(OC2CCCCO2)C(=O)/C=C/C=C\c2csc(n2)C(C)N2C(=O)CC(C(C)(O)C(=O)SCc3oc(=O)oc3CCl)(CC1)[S+]2[O-]` (centres unmarked) [Compound 74], the negative-log IC50 (pIC50) was 7.72.
Same read-out and setting: for `C/C1=C\C(OC2CCCCO2)C(=O)/C=C/C=C\c2csc(n2)C(C)N2C(=O)CC(C(C)(O)C(=O)SCc3oc(=O)oc3COC(=O)CN(C)C)(CC1)[S+]2[O-]` (centres unmarked) [Compound 92] the value was 8.57; for `C=C(CSC(=O)C(C)(O)C12CC/C(C)=C/C(O)C(=O)/C=C/C=C\c3csc(n3)C(C)N(C(=O)C1)[S+]2[O-])C(=O)OC` (centres unmarked) [Compound 111], 7.70.
On the same count and under the same terms, for `C/C1=C\C(OC2CCCCO2)C(=O)/C=C/C=C\c2csc(n2)C(C)N2C(=O)CC(C(C)(O)C(=O)SCc3oc(=O)oc3COC=O)(CC1)[S+]2[O-]` (centres unmarked) [Compound 89] the value was 7.39; for `CC1=CC(O)C(=O)C=CC=Cc2csc(n2)C(C)N2C(=O)CC(C(C)(O)C(=O)SCOC(=O)c3ccccc3)(CC1)[S+]2[O-]` (centres unmarked) [Compound 6], 7.74.
On the same count and under the same terms, for `COC(=O)[C@H](CCC(=O)OCSC(=O)C(C)(O)C12CC/C(C)=C/C(O)C(=O)/C=C/C=C\c3csc(n3)C(C)N(C(=O)C1)[S+]2[O-])NC(=O)C(C)(CO)CO` (some centres unmarked) [Compound 61] the value was 6.14; for `C/C1=C\C(OC2CCCCO2)C(=O)/C=C/C=C\c2csc(n2)C(C)N2C(=O)CC(C(C)(O)C(=O)SCc3oc(=O)oc3COC(=O)NCCO)(CC1)[S+]2[O-]` (centres unmarked) [Compound 110], 7.66.
Turning to `CC1=CC(O)C(=O)C=CC=Cc2csc(n2)C(C)N2C(=O)CC(C(C)(O)C(=O)SCOC(=O)CCCN3C(=O)C=CC3=O)(CC1)[S+]2[O-]` (centres unmarked) [Compound 28], the pIC50 was 6.12.
The same measure, in the same setting: for `CC1=CC(O)C(=O)C=CC=Cc2csc(n2)C(C)N2C(=O)CC(C(C)(O)C(=O)SCOC(=O)CCNC(=O)[C@H]3O[C@@H]4OC(C)(C)O[C@@H]4[C@H]4OC(C)(C)O[C@H]43)(CC1)[S+]2[O-]` (some centres unmarked) [Compound 21] the value was 6.42; for `COC(=O)[C@H](CCC(=O)OCSC(=O)C(C)(O)C12CC/C(C)=C/C(OC3CCCCO3)C(=O)/C=C/C=C\c3csc(n3)C(C)N(C(=O)C1)[S+]2[O-])NC(=O)[C@@]12O[C@H]3COC(C)(C)O[C@H]3[C@@H]1OC(C)(C)O2` (some centres unmarked) [Compound 49], 7.52; for `COCCOCCOCC(=O)OCOC1/C=C(\C)CCC2(C(C)(O)C(=O)SCOC(=O)COCCOCCOC)CC(=O)N(C(C)c3nc(cs3)/C=C\C=C\C1=O)[S+]2[O-]` (centres unmarked) [Compound 36], 7.70.
As for `C/C1=C\C(OC2CCCCO2)C(=O)/C=C/C=C\c2csc(n2)C(C)N2C(=O)CC(C(C)(O)C(=O)SCOC(=O)c3cccc(O)c3)(CC1)[S+]2[O-]` (centres unmarked) [Compound 69], the pIC50 is 7.12.
On the same count and under the same terms, for `COC(=O)[C@H](CCC(=O)OCSC(=O)C(C)(O)C12CC/C(C)=C/C(OC3CCCCO3)C(=O)/C=C/C=C\c3csc(n3)C(C)N(C(=O)C1)[S+]2[O-])NC(=O)c1ccc(O)cc1` (some centres unmarked) [Compound 71] the value was 8.92.
On the same count and under the same terms, under `COC(=O)/C(=C/c1ccccc1)CSC(=O)C(C)(O)C12CC/C(C)=C/C(O)C(=O)/C=C/C=C\c3csc(n3)C(C)N(C(=O)C1)[S+]2[O-]` (centres unmarked) [Compound 120] stands 6.57.
Still for that read-out and setting: for `C/C1=C\C(OC2CCCCO2)C(=O)/C=C/C=C\c2csc(n2)C(C)N2C(=O)CC(C(C)(O)C(=O)SCOC(=O)CNC(=O)[C@@]34O[C@H]5COC(C)(C)O[C@H]5[C@@H]3OC(C)(C)O4)(CC1)[S+]2[O-]` (some centres unmarked) [Compound 43] the value was 7.62.

Still in this experiment, the particulars now being: Homo sapiens; HeLa S3; 72 hours incubation; Neutral Red; read-out: IC50, HeLa S3 cell growth inhibition.
`CC[Si](CC)(CC)OCc1oc(=O)oc1CSC(=O)C(C)(O)C12CC/C(C)=C/C(OC3CCCCO3)C(=O)/C=C/C=C\c3csc(n3)C(C)N(C(=O)C1)[S+]2[O-]` (centres unmarked) [Compound 76]: the pIC50 was 6.59.
Still for that read-out and setting: for `CC[Si](CC)(CC)OC[C@H]1OC(OCc2oc(=O)oc2CSC(=O)C(C)(O)C23CC/C(C)=C/C(O)C(=O)/C=C/C=C\c4csc(n4)C(C)N(C(=O)C2)[S+]3[O-])C[C@@H](O[Si](CC)(CC)CC)[C@@H]1O[Si](CC)(CC)CC` (some centres unmarked) [Compound 81] the value was 6.68.

The experiment is the same for the next values; noted with them: read-out: IC50, HeLa S3 cell growth inhibition; HeLa S3; 72 hours incubation; Neutral Red.
On to `C/C1=C\C(OC2CCCCO2)C(=O)/C=C/C=C\c2csc(n2)C(C)N2C(=O)CC(C(C)(O)C(=O)SCOC(=O)CNC(=O)[C@@]34O[C@@H](CO)[C@@H](O)[C@@H]3OC(C)(C)O4)(CC1)[S+]2[O-]` (single isomer, unassigned) [Compound 62], for which the pIC50 was 7.15.
